Test results as given in patent publication US20100303758A1, “Novel Glucocorticoid Receptor Agonists” (priority 2009, published 2010).

How the values were obtained:
human GR = target: T1, human GR (Homo sapiens, UniProt P04150); assay: GR agonist potency, MMTV-luciferase reporter in SW1353 cells; assay type: cell-based; conditions: human chondrosarcoma cell-line SW1353 stably transfected with MMTV-luciferase reporter; approx. 18 hours; data as percentage of 1 μM dexamethasone positive control
T1 construct: SW1353 naturally expresses human GR; endogenous in cells; host or cells: human chondrosarcoma cell-line SW1353 stably transfected with an MMTV-luciferase reporter construct
T1 sequence (P04150 1-777): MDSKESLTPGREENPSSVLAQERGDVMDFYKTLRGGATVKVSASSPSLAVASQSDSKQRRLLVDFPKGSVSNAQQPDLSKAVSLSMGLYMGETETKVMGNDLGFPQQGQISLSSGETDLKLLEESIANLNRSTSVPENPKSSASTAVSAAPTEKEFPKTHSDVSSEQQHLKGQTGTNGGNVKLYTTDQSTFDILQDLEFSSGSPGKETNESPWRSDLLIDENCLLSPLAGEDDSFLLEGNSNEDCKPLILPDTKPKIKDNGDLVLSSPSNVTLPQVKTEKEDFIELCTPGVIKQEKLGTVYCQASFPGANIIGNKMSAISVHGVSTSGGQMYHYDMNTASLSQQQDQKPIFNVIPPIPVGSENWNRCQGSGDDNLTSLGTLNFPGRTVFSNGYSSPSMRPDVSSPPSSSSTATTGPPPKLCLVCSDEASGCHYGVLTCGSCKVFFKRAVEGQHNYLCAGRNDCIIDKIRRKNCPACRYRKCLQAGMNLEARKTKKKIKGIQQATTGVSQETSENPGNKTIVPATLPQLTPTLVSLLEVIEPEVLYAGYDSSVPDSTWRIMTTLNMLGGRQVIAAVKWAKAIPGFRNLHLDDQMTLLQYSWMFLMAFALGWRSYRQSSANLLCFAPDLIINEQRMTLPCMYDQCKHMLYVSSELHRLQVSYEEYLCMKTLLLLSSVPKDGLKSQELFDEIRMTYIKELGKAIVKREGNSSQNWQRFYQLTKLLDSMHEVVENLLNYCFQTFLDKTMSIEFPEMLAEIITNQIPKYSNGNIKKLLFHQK
Procedure: Glucococorticoid receptor (GR) agonist potency was determined in the human chondrosarcoma cell-line SW1353 stably transfected with an MMTV-luciferase reporter construct. SW1353 naturally expresses human GR, which on binding a glucocorticoid agonist activates glucocorticoid response elements within the MMTV promoter, driving expression of the luciferase gene.
Frozen SW1353 cells were revived in DMEM medium, without sodium pyruvate or phenol red, supplemented with 2 mM L-glutamine, 1 μg/ml insulin, 2 mg/ml lactalbumin hydrosylate and 0.5 μg/ml ascorbate. Cells were seeded at approximately 5000 cells/well (35 μl/well) in 384-well clear bottom, tissue culture treated plates. Steroid dose-response dilutions were prepared in steroid diluent (PBS containing 2.5% (v/v) DMSO and 0.05% (v/v) pluronic detergent) and 5 μl added to each well. The volume was made up to 50 μl per well with steroid diluent. Positive control wells contained 1 μM dexamethasone. Plates were incubated for approximately 18 hours at 37° C. in an air/5% CO2 atmosphere in a humidified incubator before Britelite reagent (10 μl; Perkin-Elmer) was added to each well. Each plate was incubated for 2 minutes in the dark and luminescence quantified using a LJL Biosystems Analyst luminometer. Data for test compounds (expressed as percentage of the dexamethasone positive control) were used to construct dose response curves from which EC50 values were estimated.

[1] = Inhibition of TNF-α release from LPS stimulated isolated human PBMC; assay type: cell-based; conditions: Homo sapiens, PBMC, read-out: IC50 (nM) for inhibition of TNF-α release
Procedure: The anti-inflammatory activity of the compounds against human leukocytes in vitro was also evaluated by determining inhibition of tumour necrosis factor-α (TNF-α) release from lipopolysaccharide (LPS) stimulated isolated human peripheral mononuclear cells (PBMC).
Peripheral venous blood from healthy, non-medicated donors was collected using ethylenediaminetetraacetic acid (EDTA) as the anti-coagulant. For PBMC preparation, samples of blood were diluted 1:1 with sterile phosphate buffered saline and then separated using ACCUSPIN™ System-Histopaque®-1077 tubes (Sigma-Aldrich, St Louis, Mo.), centrifuged at 400 g for 35 minutes. Buffy coat cells were removed into PBS, centrifuged at 200 g for 10 minutes and re-suspended in PBMC assay buffer (Hanks Balanced Salt Solution, 0.28% [w/v] 4-[2-hydroxyethyl]-1-piperazineethanesulfonic acid [HEPES], 0.01% [w/v] low-endotoxin bovine serum albumin [BSA]. A differential white cell count was performed and PBMC's diluted to 1×10^6 lymphocytes per ml in PBMC assay buffer.
Test compounds were dissolved in DMSO and diluted in PBMC assay buffer (final DMSO concentration 1%) to cover an appropriate concentration range, e.g 0.001 nM to 10000 nM. Samples of test compound solution or vehicle (20 μl) were added into 96-well tissue culture treated plates (Corning) and PBMC (160 μl) added to each well. The assay mixtures were incubated at 37° C. for 1 h in a humidified incubator containing an atmosphere of air supplemented with 5% CO2 before adding LPS (20 μl of 100 ng/ml for PBMC). Plates were returned to the incubator for a further 18 hours, and then centrifuged before recovery of samples of supernatant. TNF-α in the samples was determined using an enzyme-linked immunosorbent assay (ELISA) (Invitrogen kit no CHC-1754; Invitrogen Carlsbad, Calif.) and following the manufacturers instructions. Dose response curves were constructed from which IC50 values were calculated.

Row | SMILES | EC50 (human GR) | IC50 [1]
1 | C[C@]12C=CC(=O)C=C1CC[C@H]1[C@@H]3CC[C@](OC(=O)c4ccc(Oc5ccccc5)c(O)c4)(C(=O)OCC#N)[C@@]3(C)C[C@H](O)[C@@]12F [Example 33, cyanomethyl(11beta,17alpha)-9-fluoro-11-hydroxy-17-[(3-hydroxy-4-phenoxybenzoyl)oxy]-3-oxoandrosta-1,4-diene-17-carboxylate] | 68.3 nM | 0.212 nM
2 | C[C@]12C=CC(=O)C=C1CC[C@H]1[C@@H]3CC[C@](OC(=O)c4ccc(Sc5ccccc5O)cc4)(C(=O)OCC#N)[C@@]3(C)C[C@H](O)[C@@]12F [Example 35, cyanomethyl (11beta,17alpha)-9-fluoro-11-hydroxy-17-({4-[(2-hydroxyphenyl)thio]benzoyl}oxy)-3-oxoandrosta-1,4-diene-17-carboxylate] | 75.2 nM | 0.099 nM
3 | C[C@]12C=CC(=O)C=C1CC[C@H]1[C@@H]3CC[C@](OC(=O)c4ccc(Oc5ccc(O)nc5)cc4)(C(=O)OCC#N)[C@@]3(C)C[C@H](O)[C@@]12F [Example 36, cyanomethyl (11beta,17alpha)-9-fluoro-11-hydroxy-17-({4-[(6-hydroxypyridin-3-yl)oxy]benzoyl}-oxy)-3-oxoandrosta-1,4-diene-17-carboxylate] | 16.3 nM | 0.167 nM
4 | C[C@]12C=CC(=O)C=C1CC[C@H]1[C@@H]3CC[C@](OC(=O)c4ccc(Oc5ccc(O)c(Cl)c5)cc4)(C(=O)OCC#N)[C@@]3(C)C[C@H](O)[C@@]12F [Example 37, cyanomethyl (11beta,17alpha)-17-{[4-(3-chloro-4-hydroxybhenoxy)-benzoyl]oxy}-9-fluoro-11-hydroxy-3-oxoandrosta-1,4-diene-17-carboxylate] | 39.7 nM | 0.201 nM
5 | C[C@]12C=CC(=O)C=C1CC[C@H]1[C@@H]3CC[C@](OC(=O)c4ccc(Sc5ccc(Cl)c(O)c5)cc4)(C(=O)SCC#N)[C@@]3(C)C[C@H](O)[C@@]12F [Example 38, (11beta,17alpha)-17-{[(cyanomethyl)thio]carbonyl}-9-fluoro-11-hydroxy-3-oxoandrosta-1,4-dien-17-yl 4-[(4-chloro-3-hydroxyphenyl)thio]benzoate] | 54.7 nM | 0.755 nM
6 | C[C@]12C=CC(=O)C=C1CC[C@H]1[C@@H]3CC[C@](OC(=O)c4ccc(Sc5ccc(Cl)c(O)c5)cc4)(C(=O)OCC#N)[C@@]3(C)C[C@H](O)[C@@]12F [Example 39, cyanomethyl(11beta,17alpha)-17-({4-[(4-chloro-3-hydroxyphenyl)thio]benzoyl}oxy)-9-fluoro-11-hydroxy-3-oxoandrosta-1,4-diene-17-carboxylate] | 44.1 nM | 0.615 nM
7 | C[C@]12C=CC(=O)C=C1CC[C@H]1[C@@H]3CC[C@](OC(=O)c4ccc(Oc5ccc(Cl)c(O)c5)cc4)(C(=O)SCF)[C@@]3(C)C[C@H](O)[C@@]12F [Example 40, (11beta,17alpha)-9-fluoro-17-{[(fluoromethyl)thio]carbonyl}-11-hydroxy-3-oxoandrosta-1,4-dien-17-yl 4-(4-chloro-3-hydroxyphenoxy)benzoate] | 31.2 nM | 0.053 nM
8 | C[C@@H]1C[C@H]2[C@@H]3C[C@H](F)C4=CC(=O)C=C[C@]4(C)[C@@]3(F)[C@@H](O)C[C@]2(C)[C@@]1(OC(=O)c1ccc(Oc2ccc(Cl)c(O)c2)cc1)C(=O)OCF [Example 41, Fluoromethyl (6alpha,11beta,16alpha,17alpha)-17-{[4-(4-chloro-3-hydroxyphenoxy)benzoyl]oxy}-6,9-difluoro-11-hydroxy-16-methyl-3-oxoandrosta-1,4-diene-17-carboxylate] | 7.73 nM | 0.032 nM
9 | C[C@@H]1C[C@H]2[C@@H]3C[C@H](F)C4=CC(=O)C=C[C@]4(C)[C@@]3(F)[C@@H](O)C[C@]2(C)[C@@]1(OC(=O)c1ccc(Oc2ccc(Cl)c(O)c2)cc1)C(=O)OCC#N [Example 42, Cyanomethyl (6alpha,11beta,16alpha,17alpha)-17-{[4-(4-chloro-3-hydroxyphenoxy)benzoyl]oxy}-6,9-difluoro-11-hydroxy-16-methyl-3-oxoandrosta-1,4-diene-17-carboxylate] | 24.4 nM | 0.443 nM
10 | C[C@@H]1C[C@H]2[C@@H]3CCC4=CC(=O)C=C[C@]4(C)[C@@]3(F)[C@@H](O)C[C@]2(C)[C@@]1(OC(=O)c1ccc(Oc2ccc(O)c(Cl)c2)cc1)C(=O)SCF [Example 43, (11beta,16alpha,17alpha)-9-fluoro-17-{[(fluoromethyl)thio]carbonyl}-11-hydroxy-16-methyl-3-oxoandrosta-1,4-dien-17-yl 4-(3-chloro-4-hydroxyphenoxy)benzoate] | 26.4 nM | 0.06 nM
11 | C[C@@H]1C[C@H]2[C@@H]3C[C@H](F)C4=CC(=O)C=C[C@]4(C)[C@@]3(F)[C@@H](O)C[C@]2(C)[C@@]1(OC(=O)c1ccc(Oc2ccc(O)c(Cl)c2)cc1)C(=O)OCF [Example 44, Fluoromethyl (6alpha,11beta,16alpha,17alpha)-17-{[4-(3-chloro-4-hydroxyphenoxy)benzoyl]oxy}-6,9-difluoro-11-hydroxy-16-methyl-3-oxoandrosta-1,4-diene-17-carboxylate] | 6.7 nM | 0.029 nM
12 | C[C@@H]1C[C@H]2[C@@H]3C[C@H](F)C4=CC(=O)C=C[C@]4(C)[C@@]3(F)[C@@H](O)C[C@]2(C)[C@@]1(OC(=O)c1ccc(Oc2ccc(O)c(Cl)c2)cc1)C(=O)OCC#N [Example 45, cyanomethyl(6alpha,11beta,16alpha,17alpha)-17-{[4-(3-chloro-4-hydroxyphenoxy)benzoyl]oxy}-6,9-difluoro-11-hydroxy-16-methyl-3-oxoandrosta-1,4-diene-17-carboxylate] | 21.3 nM | 0.155 nM
13 | CSc1ccc(Sc2ccc(C(=O)O[C@]3(C(=O)OCC#N)[C@H](C)C[C@H]4[C@@H]5C[C@H](F)C6=CC(=O)C=C[C@]6(C)[C@@]5(F)[C@@H](O)C[C@@]43C)cc2)cc1 [Example 46, Cyanomethyl (6alpha,11beta,16alpha,17alpha)-6,9-difluoro-11-hydroxy-16-methyl-17-[(4-{[4-(methylthio)phenyl]thio}benzoyl)oxy]-3-oxoandrosta-1,4-diene-17-carboxylate] | 44.3 nM | 0.372 nM
14 | CSc1cccc(Oc2ccc(C(=O)O[C@]3(C(=O)OCC#N)[C@H](C)C[C@H]4[C@@H]5C[C@H](F)C6=CC(=O)C=C[C@]6(C)[C@@]5(F)[C@@H](O)C[C@@]43C)cc2)c1 [Example 47, Cyanomethyl (6alpha,11beta,16alpha, 17alpha)-6,9-difluoro-11-hydroxy-16-methyl-17-({4-[3-(methylthio)phenoxy]benzoyl}oxy)-3-oxoandrosta-1,4-diene-17-carboxylate] | 25.2 nM | 0.731 nM
